Measurements: patent publication US11884710B2, “Peptide compounds and methods of use in wound healing” (priority 2013, dated 2024)
Square brackets hold non-standard residues; d marks the D form. Peptide text beside a SMILES is read from it. PEG2 = NCCOCCOCCC(=O)O

Experiments:
P. aeruginosa ATCC 27853 = assay type: cell-based, Pseudomonas aeruginosa; settings: Pseudomonas; inoculum 1×10^6 CFU/ml; 60 to 180 minute incubation
Method: (§1) In vitro bactericidal activity: The three peptide compounds BCC01-5RMP (SEQ ID NO:23), BCC002-5RMP (SEQ ID NO:21), and BCC003-5RMP (SEQ ID NO:22) were assayed for in vitro bactericidal activity against Pseudomonas aeruginosa, Escherichia coli, Salmonella typhimurium, and Acinetobacter baumannii. The starting inoculum for all experiments was 1×10^6 colony forming units (CFU)/ml. The CFU remaining at the end of 60 to 180 minute incubation was determined, and the data plotted as a log reduction in CFU/ml.
Table 4 further compares the activity of several other compounds, including the “5R” versions of BCC01, i.e., SEQ ID NO:20 (which comprises SEQ ID NO: 7 with five additional arginines), the “5R” version of BCC002 (i.e., SEQ ID NO:18, which comprises SEQ ID NO: 1 with five additional arginines), and the 5RMP versions of BCC01 (SEQ ID NO: 23) and BCC002 (SEQ ID NO: 21). The data generally indicate the superiority of BCC003-5RMP (SEQ ID NO:22) and BCC002-5RMP (SEQ ID NO: 21) and the superiority of the 5R or 5RMP versions of the peptide over the “AEEP only” peptide against P. aeruginosa.

Escherichia coli = assay: In vitro bactericidal activity against Escherichia coli; assay type: cell-based; settings: E. coli; inoculum 1×10^6 CFU/ml; 60 to 180 minute incubation
Method: as §1

Salmonella typhimurium = assay: In vitro bactericidal activity against Salmonella typhimurium; assay type: cell-based; settings: inoculum 1×10^6 CFU/ml, 60 to 180 minute incubation
Method: as §1

Acinetobacter baumannii = assay: In vitro bactericidal activity against Acinetobacter baumannii; assay type: cell-based; settings: inoculum 1×10^6 CFU/ml, 60 to 180 minute incubation
Method: as §1

Pseudomonas LPS = assay: LPS binding, Limulus Amebocyte Lysate (LAL) assay; settings: LAL method
Method: (§2) The well-characterized response of RAW264.7 macrophage cells was used to produce tumor necrosis-factor-alpha (TNF-α) in response to LPS to determine whether the peptides could dampen the release of this cytokine. […] Importantly, pre-treatment (3 hours prior to LPS addition) as well as post-treatment of the RAW264.7 cells (3 hours post LPS addition) with peptide dampened the cytokine release. […] The finding that the novel peptides bind and neutralize the effect of Pseudomonas LPS is of critical importance since this ensures that the novel therapeutic peptide compounds described herein will not only kill the bacteria, but will also neutralize the LPS endotoxin released by the bacteria which plays such an important role in the rapid progression of sepsis.
(§3) BCC01-5RMP (SEQ ID NO:23), BCC002-5RMP (SEQ ID NO:21), and BCC003-5RMP (SEQ ID NO:22) were tested for their ability to bind lipopolysaccharide (LPS) using the limulus amebocyte lysate method (LAL). […] There was no statistical difference in their ability to bind LPS using the LAL technique. The ability of the peptides to neutralize LPS was assessed by determining their ability to attenuate the release of tumor necrosis factor-alpha (TNF-α) from LPS-stimulated RAW264.7 cells (a mouse macrophage cell line). […] No significant differences were observed between the three peptides to neutralize LPS as measured by cytokine release. Peptides based on sequence 120-146 (SEQ ID NOS:28-31) also bind and neutralize Pseudomonas LPS.

[1] = system: release of TNF-α from LPS-stimulated RAW264.7 cells; assay: LPS neutralization: TNF-α release from LPS-stimulated RAW264.7 cells; assay type: cell-based, mouse
Method: as §2, §3

Which results are given for `CC[C@H](C)[C@H](NC(=O)[C@H](CC(C)C)NC(=O)[C@H](C)NC(=O)CNC(=O)CNC(=O)[C@H](CS)NC(=O)[C@H](Cc1ccccc1)NC(=O)[C@H](Cc1c[nH]cn1)NC(=O)[C@H](CCCNC(=N)N)NC(=O)CNC(=O)[C@H](CCC(N)=O)NC(=O)[C@H](CC(N)=O)NC(=O)[C@H](CCCNC(=N)N)NC(=O)[C@H](CCCNC(=N)N)NC(=O)[C@H](CCCNC(=N)N)NC(=O)[C@H](CCCNC(=N)N)NC(=O)CCOCCOCCNC(=O)CCOCCOCCN)C(=O)N[C@@H](Cc1c[nH]cn1)C(=O)N[C@@H](C)C(=O)N[C@@H](CCCNC(=N)N)C(=O)N[C@@H](Cc1ccccc1)C(=O)N[C@H](C(=O)N[C@@H](CCSC)C(=O)N[C@H](C(=O)N[C@@H](C)C(=O)N[C@@H](C)C(=O)N[C@@H](CO)C(=O)N[C@@H](CS)C(=O)N[C@@H](Cc1ccccc1)C(=O)N[C@@H](CCC(N)=O)C(=O)N[C@@H](CCCNC(=N)N)C(=O)O)[C@@H](C)O)C(C)C` [BCC01-5RMP] (H-[PEG2][PEG2]RRRRNQGRHFCGGALIHARFVMTAASCFQR-OH; C-terminus assumed)?
in vitro bactericidal activity, in words (P. aeruginosa ATCC 27853): most active; in vitro bactericidal activity, in words (Escherichia coli): strong, but lesser activity; in vitro bactericidal activity, in words (Salmonella typhimurium): strong, but lesser activity; in vitro bactericidal activity, in words (Acinetobacter baumannii): most active; binding of Pseudomonas LPS (Pseudomonas LPS): bound Pseudomonas LPS; neutralization of LPS: attenuation of TNF-α release [1]: attenuate the release of TNF-α

Which results are given for `CC[C@H](C)[C@H](NC(=O)[C@H](CC(C)C)NC(=O)[C@H](C)NC(=O)CNC(=O)CNC(=O)[C@H](CS)NC(=O)[C@H](Cc1ccccc1)NC(=O)[C@H](Cc1c[nH]cn1)NC(=O)[C@H](CCCNC(=N)N)NC(=O)CNC(=O)[C@H](CCC(N)=O)NC(=O)[C@H](CC(N)=O)NC(=O)[C@H](CCCNC(=N)N)NC(=O)[C@H](CCCNC(=N)N)NC(=O)[C@H](CCCNC(=N)N)NC(=O)[C@H](CCCNC(=N)N)NC(=O)CCOCCOCCNC(=O)CCOCCOCCN)C(=O)N[C@@H](Cc1c[nH]cn1)C(=O)N[C@@H](C)C(=O)N[C@@H](CCCNC(=N)N)C(=O)N[C@@H](Cc1ccccc1)C(=O)N[C@H](C(=O)N[C@@H](CCSC)C(=O)N[C@H](C(=O)N[C@@H](C)C(=O)N[C@@H](C)C(=O)N[C@@H](CO)C(=O)N[C@@H](CO)C(=O)N[C@@H](Cc1ccccc1)C(=O)N[C@@H](CCC(N)=O)C(=O)N[C@@H](CCCNC(=N)N)C(=O)O)[C@@H](C)O)C(C)C` [BCC03-5RMP] (H-[PEG2][PEG2]RRRRNQGRHFCGGALIHARFVMTAASSFQR-OH)?
in vitro bactericidal activity, in words (P. aeruginosa ATCC 27853): most active; in vitro bactericidal activity, in words (Escherichia coli): strong, but lesser activity; in vitro bactericidal activity, in words (Salmonella typhimurium): strong, but lesser activity; in vitro bactericidal activity, in words (Acinetobacter baumannii): most active; binding of Pseudomonas LPS (Pseudomonas LPS): bound Pseudomonas LPS; neutralization of LPS: attenuation of TNF-α release [1]: attenuate the release of TNF-α
